Test results reported in patent US20110311601A1, “ANTIMICROBIAL MEDICAL DEVICES” (priority 2010, published 2011).
Where no end group is shown, it is not given here.

System: Escherichia coli strain DB3.1
Test: agar diffusion assay (zone of inhibition)
Type: cell-based
Procedure: Agar diffusion assay. In the agar diffusion assay the microorganisms were exposed immovable to the potential bio-active substance by inclusion in an agar containing medium. The use of a nutrient limited minimal medium led first to a limitation of the development of the bacteria. The test substances were dependent on the application form pipetted into the punched recess in the agar or placed with a test sample into the punched recess in the agar and spread out during incubation time by diffusion into the agar. After incubation the nutrient limitation of the bacteria was revoked. The determination of the bioactivity was performed by measuring the diameter of the raised zone of inhibition surrounding the recess.
Therefore, Escherichia coli strain DB3.1 (Invitrogen, Cat. No. 11782-018) was used. E. coli was streaked from a glycerol stock onto a Brain Heart Infusion (BHI) agar plate (3.7% (w/v) BHI Bouillon, 1.5% (w/v) Agar) and was grown overnight at 37° C. Subsequently one colony was used to inoculate 8 ml of TSB medium (Caso Bouillon 3% (w/v)) without any antibiotics in a culture tube which was then incubated shaking (120 rpm) over night at 37° C. 50 μl of this pre-culture was used to inoculate again 8 ml of TSB medium (Caso Bouillon 3% (w/v)) without any antibiotics in a fresh culture tube which was then incubated shaking (125 rpm) for 3.5 h at 37° C. The OD600 of the bacterial suspension was then 0.500.
The underlay medium (11% (v/v) 0.1 M sodium phosphate buffer pH 7.2, 1% (v/v) TSB-medium, 0.02% (v/v) Tween, 1% (w/v) agarose in distilled water, pH 7.2), a minimal medium, was liquefied using micro waves and cooled to about 47° C. 10 ml underlay medium with 500 μl bacterial suspension were mixed in a 50 ml falcon tube by slight swirling and then was poured into a petri dish. The cooling time was first 15 min at room temperature and then 30 min at 4° C. Afterwards the recesses for test liquids (diameter 3 mm) and test materials (diameter 6 mm), respectively, were punched out from the underlay medium by using a punching-dye. 5 μl test liquid was pipetted per recess and the test materials were laid into the recess or were slid under the underlay medium, respectively. The lid of the plate was closed by parafilm and the plate was incubated over night at 37° C. The next day, the overlay medium (3.4% (w/v) casein peptone, 0.6% (w/v) soy flour peptone, 0.5% (w/v) di-potassium hydrogen phosphate, 1% (w/v) NaCl, 0.5% (w/v) glucose, 1% (w/v) agarose in distilled water) was liquefied using micro waves and cooled to about 47° C. In every Petri dish 10 ml overlay medium were poured on the underlay medium. After cooling for 5 minutes the plate was closed by the lid and incubated at 37° C. for about 2-3 h. For evaluation, the diameter of the raised zones of inhibition surrounding the recesses was measured.
The potential of the chosen biopolymers to release bio-active hβD2 after coating/mixing them with hβD2, was determined by a screening in the diffusion assay (as described in Example 5). The assay allows a correlation between the released amounts of bio-active molecules and the resulting zone of inhibition surrounding the releasing source. A comparison with the effect of directly applied, defined amounts of hβD2 allows an evaluation of the release potential of the test materials.
In the assay films made of 1% hyaluronic acid and 1% alginic acid, gelatin leaves, gelatinized agarose drops of 1% agarose solution and films of the dried drops were used. Additionally three variants of a polylactide matrix (uncoated, coated with collagen, coated with collagen and chondroitin sulphate) and collagen scaffolds were tested.
The samples were prepared as described in example 5 and treated with 10 μg hβD2. For the comparison between the effect of directly applied hβD2 amounts and the effect of hβD2-coated samples a standard series for 0.1, 1, 5 and 10 μg hβD2 was performed. The control was formed by the 0.01% acetic acid. […]

## human β-defensin-2 (GIGDPVTCLKSGAICHPVFCPRRYKQIGTCGLPGTKCCKKP; ends and bridges not checked; cysteine pairing not given here) [hβD2, recombinant hβD2]
0.1 μg hβD2 directly applied
  diameter of zone of inhibition: 6 mm
1 μg hβD2 directly applied
  diameter of zone of inhibition: 9 mm
5 μg hβD2 directly applied
  diameter of zone of inhibition: 12 mm
10 μg hβD2 directly applied
  diameter of zone of inhibition: 15 mm
10 μg hβD2 on alginic acid film
  formation of a zone of inhibition: did not exhibit the formation of a zone of inhibition
10 μg hβD2 on hyaluronic acid film
  formation of a zone of inhibition: did not exhibit the formation of a zone of inhibition
